# Results reported in publication PMC12586598, “A novel long-acting C5a-blocking cyclic peptide prevents sepsis-induced organ dysfunction via effective blockade of the inflammatory cascade” (Signal Transduction and Targeted Therapy, 2025).
# Where a SMILES comes first, the peptide text is derived from it.
# Assays:
# [1] = mouse, 24 h
# Text: The peptides in the plasma were extracted with 15% TFA and quantified via reversed-phase high-performance liquid chromatography (HPLC) (Agilent 1260, USA).
# mouse C5a [2] = target: T1, mouse C5a (Mus musculus, UniProt P06684); test: SPR binding affinity assay, immobilized mouse C5a; parameters: immobilization of mouse C5a (ACROBiosystems, Beijing, China); purchased ACROBiosystems
# T1 sequence (P06684 679-755 limits assumed): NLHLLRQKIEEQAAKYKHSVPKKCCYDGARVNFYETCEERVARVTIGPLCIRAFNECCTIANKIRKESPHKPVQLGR
# Experimental: (§1) Surface plasmon resonance (SPR) analysis was conducted using Biacore 2000 system (GE Healthcare, Germany) at 37°C in running buffer (20 mM Tris-HCl, pH 7.4, 150 mM NaCl, 5 mM KCl, 1 mM MgCl₂, 1 mM CaCl₂). The CM5 sensor chips (GE Healthcare) were activated with NHS/EDC, followed by immobilization of mouse C5a (ACROBiosystems, Beijing, China), human C5a (ACROBiosystems, Beijing, China), mouse C5 (ACROBiosystems, Beijing, China) or mouse C5a-desArg (MCE, Shanghai, China). The peptide-protein interactions were characterized using a concentration-gradient approach (low to high) with a continuous flow rate of 30 μL/min (150 s injection duration). Between analyte concentrations, the sensor surface was regenerated with 10 mM glycine-HCl (pH 2.0; 5 min treatment). Binding and dissociation constants were obtained by globally fitting the data to a 1:1 Langmuir binding model using a Biacore Insight evaluation software (Cytiva, USA).
# CLP-treated mice = test: Response to secondary infection, short-term exposure: LPS stimulation of whole blood; format: in vivo, mouse; details: blood taken 24 h post-CLP surgery, 1 μg LPS
# Experimental: To evaluate the impact of short-term (24 h) drug exposure on the secondary infection response. Whole blood samples were collected from each group at 24 h post-CLP surgery and stimulated with 1 μg of LPS. The IL-6 levels at 0 h, 2 h, and 4 h poststimulation were quantified via an ELISA kit.
# human C5a = target: T2, human C5a (Homo sapiens, UniProt P01031); test: SPR binding affinity assay, immobilized human C5a
# T2 construct: human C5a (ACROBiosystems, Beijing, China); purchased ACROBiosystems
# T2 sequence (P01031 678-751 limits assumed): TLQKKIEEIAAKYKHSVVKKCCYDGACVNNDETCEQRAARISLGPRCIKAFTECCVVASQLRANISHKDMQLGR
# Experimental: as §1
# mouse C5a [3] = target: T1, mouse C5a; test: Plasma C5a/C5 ratio by ELISA after Cp1; format: in vivo; details: 100 μg/20 g, normal mice or CLP model mice
# Text: We evaluated the in vivo neutralization of Cp1 against C5a by measuring the plasma C5a/C5 ratio in normal mice or CLP model mice.
# CLP model mice = test: Routine blood test: neutrophils and monocytes in CLP model mice; format: in vivo, mouse; details: 100 μg/20 g i.v.
# Experimental: The cecal ligation and puncture (CLP) model was established in male C57BL/6 mice (9-10 weeks old). Briefly, a midline laparotomy was performed to exteriorize the cecum under general anesthesia. The cecum was ligated at the distal three-quarters using sutures. Subsequently, a single through-and-through puncture was made in the ligated segment using a 22-gaμge needle, followed by small volume of fecal content was gentle extrusion. The cecum was then repositioned within abdominal cavity, and the laparotomy incision was closed in layers. All animals were administered 1 mL of sterile saline for postoperative fluid resuscitation. Sham-operated controls underwent identical surgical procedures without cecal ligation or puncture. In this work, mice received administration via intravenous injection 1 hour after CLP surgery. The animal mortality was determined by the presence of confirmed death. […] Subsequently, mice were sacrificed to collect the main organs for morphological and pathological analysis.
# mouse neutrophils = test: C5a-triggered chemotaxis assay, mouse neutrophils (IncuCyte); format: cell-based; details: 10 ng to 1 μg per well, 24 h
# Experimental: The chemotaxis assay in this study was monitored and quantified by the IncuCyte ZOOM® Live-Cell Imaging System. The y-axis label “total area normalized to initial area in each group” in Fig. 3k, m represent the ratio of the total cell area at each time point to the initial area (0 h) within the same field of view. A higher ratio indicates […] cell migration activity.
# One hundred nanograms of human C5a protein (ACROBiosystems, Beijing, China) was preincubated with linear or cyclic peptides at the indicated concentrations (10 ng, 100 ng, or 1 μg) in 1640 complete culture medium for 30 min. PMNs isolated by flow cytometric sorting for chemotaxis assays were purchased from Oribiotech Co., Ltd. (Shanghai, China). A total of 1 × 10^4 cells were added to the upper chamber of 96-well cell chemotaxis plates (Sartorius, Germany) and allowed to migrate at 37 °C for 24 h. The chemotactic response of neutrophils toward C5a with or without C5a-blocking peptides was quantified and analyzed via an IncuCyte ZOOM® Live-Cell Imaging System (Sartorius, Germany). The chemotactic response of mouse neutrophils was assessed following the established protocol for PMNs.
# CLP-induced septic mice [4] = test: Bacterial burden in blood (CFU) of CLP mice; format: in vivo, mouse
# Experimental: Whole blood samples were aseptically dropped onto nutrient agar plates. Glass beads were added, and the samples were rocked horizontally to ensure the uniform distribution of blood samples. The inoculated plates were incubated at 37 °C for 24 h, after which colony-forming units (CFUs) were counted. The colonies on the culture plates were counted via ProtoCOL 3 HD (Synbiosis, UK).
# CLP-induced septic mice [5] = test: Kaplan-Meier survival of CLP model mice; format: in vivo, mouse
# Experimental: The cecal ligation and puncture (CLP) model was established in male C57BL/6 mice (9-10 weeks old). Briefly, a midline laparotomy was performed to exteriorize the cecum under general anesthesia. The cecum was ligated at the distal three-quarters using sutures. Subsequently, a single through-and-through puncture was made in the ligated segment using a 22-gaμge needle, followed by small volume of fecal content was gentle extrusion. The cecum was then repositioned within abdominal cavity, and the laparotomy incision was closed in layers. All animals were administered 1 mL of sterile saline for postoperative fluid resuscitation. Sham-operated controls underwent identical surgical procedures without cecal ligation or puncture. In this work, mice received administration via intravenous injection 1 hour after CLP surgery. The animal mortality was determined by the presence of confirmed death. […] Blood samples were collected 24 hours after CLP-modeling for hematological analysis (Mindray BC-60R Vet) and biochemical analysis (Mindray BS-240 Vet, China), endothelial injury analysis (Njjcbio, Nanjing) and coagulation analysis (Legene, Beijing). Subsequently, mice were sacrificed to collect the main organs for morphological and pathological analysis.
smiles,measurement,setting,value
CSCC[C@@H]1NC(=O)[C@@H]2CCCN2C(=O)[C@H](CCSC)NC(=O)[C@H](CO)NC(=O)[C@H](Cc2c[nH]cn2)NC(=O)CNC(=O)[C@H](CO)NC(=O)[C@H](Cc2ccccc2)NC(=O)[C@H](CCCNC(=N)N)NC(=O)[C@H](CCC(=O)O)NC(=O)[C@H](Cc2ccccc2)NC(=O)[C@H](C(C)C)NC1=O [Cp1] (cyclo(HSMPMVFERFSG)),stability in normal plasma,[1],comparable stabilities
same,kon,"mouse C5a [2]; pH 7.4, read-out: Ka vs mC5a (SPR)",63800 M⁻¹ s⁻¹
same,koff,mouse C5a [2]; read-out: Kd (dissociation rate) vs mC5a (SPR),0.359 s⁻¹
same,IL-6 level at 2 h post-LPS stimulation vs CLP control group,CLP-treated mice,obviously increased IL-6 levels
same,kon,"human C5a; pH 7.4, read-out: Ka vs hC5a (SPR)",53300 M⁻¹ s⁻¹
same,koff,human C5a; read-out: Kd (dissociation rate) vs hC5a (SPR),0.395 s⁻¹
same,plasma C5a/C5 ratio,mouse C5a [3],decreased ratio of C5a/C5
same,increase of absolute monocyte count (delayed peak) vs sham group,CLP model mice; 12 h,69%
same,reduction in absolute neutrophil count vs CLP group,CLP model mice; 12 h,63%
same,reduction in absolute monocyte count vs the 4-h peak value in the CLP group,CLP model mice; peak at 12 h,38%
same,suppression of C5a-driven recruitment of mouse neutrophils,mouse neutrophils,dose-dependently suppressed
same,reduction of bacterial burden (CFUs/mL in blood) vs CLP,"CLP-induced septic mice [4]; 100 μg Cp1, 24 h post-CLP",93%
same,reduction of bacterial burden (CFUs/mL in blood) vs CLP,"CLP-induced septic mice [4]; 300 μg Cp1, 24 h post-CLP",86%
same,improvement in the median survival time vs untreated CLP group,"CLP-induced septic mice [5]; mouse, in vivo",300%
same,7-day survival rate,"CLP-induced septic mice [5]; single administration 100 μg/20 g, n = 10",60%
